Measurements published in US8586577B2, “Diazepane acetamide derivatives as selective 11B-HSD1 inhibitors” (Merck Patent GmbH, priority 2006, dated 2013).

Assays:
Assay type in all cases: biochemical
[1] = target: T1, mouse 11-beta HSD-1 (Mus musculus, UniProt P50172); assay: 11beta-HSD1 enzyme assay, mice liver microsome fractions, HTRF cortisol detection; details: for IC50: read-out: Inhibition of mouse 11-beta HSD-1 IC50
T1 construct: or as microsome fractions from mice liver (2.5 μg); tissue TEBU; host or cells: mouse liver microsome fractions
Method: (§1) Human recombinant 11beta-hydroxysteroid dehydrogenase type 1 (11beta-HSD1) enzyme and type 2 (11beta-HSD2) enzymes were expressed expressed in E. coli. Mice liver microsome fractions were purchased from TEBU.
(§2) The 11beta-HSD1 enzyme assay was carried out in 96 well microliter plates in a total volume of 100 μl containing 30 mM Hepes buffer, pH 7.4 with 1 mM EDTA, substrate mixture cortisone/NADPH (200 nM/200 μM), G-6-P (1 mM) and inhibitors in serial dilutions. Reactions were initiated by addition of 10 μl 11beta-HSD1 (3 μg) from E. coli, or as microsome fractions from mice liver (2.5 μg). Following mixing, the plates were shaken for 150 minutes at 37° C. The reactions were terminated with 10 μl Acid-18beta glycyrrhetinic stop solution. Determinations of cortisol levels in 11 beta-HSD1 preparations were monitored by HTRF (HTRF cortisol assay from C is bio international).
(§3) Activity is expressed in % of control or concentration to inhibit 50% of the enzyme activity (IC50).

[2] = target: T2, human 11-beta HSD-2 (Homo sapiens, UniProt P80365); assay: 11beta-HSD2 enzyme assay, human recombinant enzyme (cortisol, NAD, carbenoxolone stop); details: for IC50: read-out: Inhibition of human 11-beta HSD-2 IC50; for Selectivity Ratio human HSD2/HSD1: ratio of IC50 human HSD-2 to human HSD-1
T2 construct: made in house; host or cells: E. coli
T2 sequence (P80365 1-405): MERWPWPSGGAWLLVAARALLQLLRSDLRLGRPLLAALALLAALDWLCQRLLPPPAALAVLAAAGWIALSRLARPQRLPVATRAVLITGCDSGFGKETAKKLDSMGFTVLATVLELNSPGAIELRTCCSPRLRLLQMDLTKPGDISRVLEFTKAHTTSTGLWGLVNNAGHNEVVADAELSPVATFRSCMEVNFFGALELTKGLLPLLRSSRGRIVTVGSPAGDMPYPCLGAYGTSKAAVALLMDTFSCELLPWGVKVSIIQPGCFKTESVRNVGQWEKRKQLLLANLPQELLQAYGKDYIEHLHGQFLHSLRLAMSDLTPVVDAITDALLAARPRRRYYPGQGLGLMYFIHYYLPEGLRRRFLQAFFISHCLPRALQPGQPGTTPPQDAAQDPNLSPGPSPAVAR
Method: [Worded in the source for another target; used here, by the source, with some conditions changed.] as §1, §2, §3

[3] = target: T3, human 11-beta HSD-1 (Homo sapiens, UniProt P28845); assay: 11beta-HSD1 enzyme assay, human recombinant enzyme from E. coli, HTRF cortisol detection; details: cortisone/NADPH 200 nM/200 μM, 150 min at 37° C., read-out: Inhibition of human 11-beta HSD-1 IC50
T3 construct: made in house; host or cells: E. coli
Method: as §1, §2, §3

T3 sequence (P28845 whole entry): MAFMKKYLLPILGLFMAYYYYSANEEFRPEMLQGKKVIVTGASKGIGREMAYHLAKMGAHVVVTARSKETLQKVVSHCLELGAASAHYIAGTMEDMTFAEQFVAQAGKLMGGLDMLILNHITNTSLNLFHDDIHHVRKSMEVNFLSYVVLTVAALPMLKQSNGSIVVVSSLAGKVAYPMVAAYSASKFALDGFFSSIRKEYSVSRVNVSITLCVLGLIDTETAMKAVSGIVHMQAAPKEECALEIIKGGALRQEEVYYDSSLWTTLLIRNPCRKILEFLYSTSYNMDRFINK
T1 sequence (P50172 whole entry): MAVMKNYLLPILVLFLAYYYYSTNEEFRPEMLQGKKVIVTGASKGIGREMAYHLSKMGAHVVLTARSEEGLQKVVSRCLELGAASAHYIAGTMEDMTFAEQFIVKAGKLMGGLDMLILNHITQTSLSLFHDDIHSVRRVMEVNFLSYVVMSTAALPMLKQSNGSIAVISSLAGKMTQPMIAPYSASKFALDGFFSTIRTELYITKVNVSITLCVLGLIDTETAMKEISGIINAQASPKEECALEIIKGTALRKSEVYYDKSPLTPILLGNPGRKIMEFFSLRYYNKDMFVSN

O=C(CN1CCCN(S(=O)(=O)c2ccccc2Cl)CC1)N1CCCC2CCCCC21 (centres unmarked) [Ex 2, 2-[4-(2-Chloro-benzenesulfonyl)-[1,4]diazepan-1-yl]-1-(octahydro-quinolin-1-yl)-ethanone] was tested, and the IC50 [1] was 250 nM and the “Inhibition of human 11-beta HSD-2, activity in % of control” value ([2]; at 10 μM, human recombinant enzyme) was 81% of Ctrl.

For O=C(CN1CCCN(S(=O)(=O)c2ccccc2F)CC1)N1CCCC2CCCCC21 (centres unmarked) [Ex 2-1, 2-[4-(2-Fluoro-benzenesulfonyl)-[1,4]diazepan-1-yl]-1-(octahydro-quinolin-1-yl)-ethanone], the IC50 [3] was 27 nM, the “Inhibition of mouse 11-beta HSD-1, activity in % of control” value ([1]; at 1 μM) was 53% of Ctrl and the IC50 ([2]; human recombinant enzyme) was 3000 nM. For the same compound, the “Selectivity Ratio human HSD2/HSD1” value [2] was 111.

O=C(CN1CCCN(S(=O)(=O)c2c(F)cccc2F)CC1)N1CCCC2CCCCC21 (centres unmarked) [Ex 2-2, 2-[4-(2,6-Difluoro-benzenesulfonyl)-[1,4]diazepan-1-yl]-1-(octahydro-quinolin-1-yl)-ethanone] was tested, and the IC50 [3] was 17 nM.

With O=C(CN1CCCN(S(=O)(=O)c2ccccc2F)CC1)N(C1CCCCC1)C1CC1 [Ex 3, N-Cyclohexyl-N-cyclopropyl-2-[4-(2-fluoro-benzenesulfonyl)-[1,4]diazepan-1-yl]-acetamide] the IC50 [3] was 76 nM, the IC50 [1] was 230 nM and the IC50 ([2]; human recombinant enzyme) was 7000 nM. For the same compound, the “Selectivity Ratio human HSD2/HSD1” value [2] was 92.

CN(C(=O)CN1CCCN(S(=O)(=O)c2ccccc2F)CC1)C1CCCCC1 [Ex 3-3, N-Cyclohexyl-2-[4-(2-fluoro-benzenesulfonyl)-[1,4]diazepan-1-yl]-N-methyl-acetamide] was tested, and the IC50 [3] was 430 nM.

O=C(CN1CCCN(S(=O)(=O)c2ccccc2Cl)CC1)N1CCCCC1 [Ex 3-6, 2-[4-(2-Chloro-benzenesulfonyl)-[1,4]diazepan-1-yl]-1-piperidin-1-yl-ethanone] gave an IC50 [3] of 420 nM.

O=C(CN1CCCN(S(=O)(=O)c2ccccc2F)CC1)N1CCC2(C=Cc3ccccc32)CC1 [Ex 3-10, 2-[4-(2-fluoro-benzenesulfonyl)-[1,4]diazepan-1-yl]-1-spiro[1H-inden-1,4′piperidin-1-yl)-ethanone] showed an IC50 [3] of 122 nM.
